The subject of data set [1] is mice. As to conditions: cited from earlier work; for Effect on lifespan in the ITP mouse cohort: at the concentrations used (Miller et al., 2011; Strong et al., 2013, 2016).
Data set [2] concerns mouse liver gene expression. Description: Meta-analysis: Spearman correlation between hepatic gene expression profiles of interventions. As to conditions: for Correlation with the main cluster of interventions (defined by CR and GH deficiency): median Spearman correlation matrix. Format: in vivo. The text has this: To identify signatures associated with lifespan extension and the effect of certain interventions, we expanded our data with publicly available datasets from Gene Expression Omnibus (GEO) (Edgar, 2002) and ArrayExpress (Kolesnikov et al., 2015) databases. For the analysis of signatures associated with certain interventions (CR, rapamycin, GH deficiency), we integrated available gene expression data obtained from liver of mice from healthy genetic strains on standard diets subjected to CR, rapamycin and mutations associated with GH deficiency (Ames dwarf mice, GHRKO, Little mice, Snell dwarf mice). […] Finally, for the analysis of signatures associated with the lifespan extension effect, we integrated datasets on interventions with available and reliable survival data corresponding to the same experimental design (sex, strain, dose, age when the intervention started). In total, our hepatic meta-analysis covered 17 different interventions presented in 77 control-intervention datasets from 22 different sources (including ours) (FIG. 3D). The same approach was used to obtain microarray data corresponding to white adipose tissue (WAT) (9 control-intervention datasets from 5 sources) and skeletal muscle (13 control-intervention datasets from 9 sources).
To aggregate data across different platforms and studies, we developed the following method. First, data within each study was preprocessed independently and log-transformed to conform to normal distribution if needed. Then, filtering of low-covered genes was performed with soft threshold. Then, all identifiers were mapped to Entrez ID gene format, and genes not detected in our RNAseq data were filtered out. […] Afterwards, samples within every study were normalized by quantile normalization and scaling, followed by multiplication by the certain value to make it on the same scale as RNAseq data with more natural interpretation. Finally, mean and standard error of logFC of every gene for every response to intervention was calculated together with p-value (along with Benjamini-Hochberg adjusted p-value) estimated by edgeR (Robinson et al., 2009) and limma (Ritchie et al., 2015) for RNAseq and microarrays datasets, respectively. […] Importantly, one study may include several datasets if several interventions or settings have been analyzed there, and sometimes, different interventions or doses share the same control samples. This may be a source of batch effect, which we removed during subsequent steps of the analysis.
To calculate correlations between interventions in unbiased way, we applied the following approach. For every pair of interventions, including comparison of intervention with itself, we examined all pairs of datasets from different sources. For each such pair we selected 250 genes consisting of 125 genes with the most significant expression change (with the lowest p-values) from each dataset and calculated Spearman correlation coefficient within the pair. We reiterated this algorithm and, as a result, for every pair of interventions obtained distribution of Spearman correlation coefficients, calculated between datasets from different sources. For CR and rapamycin, we visualized these distributions using violinplot. One-sample Mann-Whitney test and Benjamini-Hochberg adjustment were used to check if means of correlation coefficients are different from 0 with statistical significance. We declared correlation coefficient to be significant if adjusted p-value was smaller than 0.1.
For correlation matrix we employed median values of Spearman correlation coefficients. By filtering out comparisons of datasets from the same source, we removed possible batch effect and ended up with independent and unbiased comparison of interventions. However, as some interventions were presented only within the same source, we couldn't estimate unbiased correlation for such cases. This missing data was visualized by grey boxes. […]

Data set [3] concerns C57BL/6 mice. Description: Frailty index of old C57BL/6 mice on compound diet. Format: in vivo, mouse. As for the experimental part: (§1) Briefly, 24-28 mice per intervention were used, with an approximately equal number of males and females. Mice were first assessed with regard to frailty index and gait speed, and then randomized to make sure the experimental and control groups had the same average frailty index and gait speed. Mice were then given a diet containing a compound of interest. […] Mice were monitored daily until they died. A separate cohort of old mice was assessed for frailty index and gait speed.
(§2) Briefly, 24-28 mice per intervention were used, with an approximately equal number of males and females. They were first assessed with regard to frailty index and gait speed, and then randomized to make sure the experimental and control groups had the same average frailty index and gait speed. Mice were then given a diet containing a compound of interest. […] Mice were monitored daily until they died. A separate cohort of old mice was assessed for frailty index and gait speed.

The subject of data set [4] is C57BL/6 mice. Put plainly: Glucose tolerance in old C57BL/6 mice on compound diet. As to conditions: old C57BL/6 mice at the dose given in diet (AZD-8055: 23-month-old, treated 2.5 months). Format: in vivo, mouse. As for the experimental part:
23-month-old mice were treated for 2.5 months prior to analyses.

The test system of data set [5] is longevity signatures. Put plainly: GSEA-based association of publicly available hepatic gene expression datasets with longevity signatures. Format: in vivo, mouse. As to conditions: for Association of hepatic gene expression changes with longevity signatures: public datasets (IL-6 injection GSE21060; SRT2104 in males GSE49000). From the text:
For interventions from publicly available sources (FIG. 7E (upper)), we downloaded them from GEO under the following accession numbers: GSE21060 (Ramadoss et al., 2010), GSE77082 (Alonso et al., 2017), GSE15891 (Baze et al., 2010), GSE11287 (Osburn et al., 2008), GSE49000 (Mercken et al., 2014), GSE10421 (Kautz et al., 2008) and GSE104234 (Rhoads et al., 2018). Data corresponding to Sirt6 overexpression (Kanfi et al., 2012) were downloaded via the link provided in the original paper. When running association test for the rhesus monkey data, we converted monkey genes to mouse orthologs using Ensembl BioMart platform. We preprocessed each dataset, performed quantile normalization and Entrez ID transformation and applied limma model for calculation of p-values, which were converted to log10(p-value) corrected by the sign of regulation as explained earlier.
To calculate statistical significance of obtained GSEA score, we performed permutation test where we randomly assigned genes to the lists of gene set maintaining their size. To get p-value of association between certain intervention and longevity signature, we calculated the frequency of real final GSEA score being bigger by absolute value than random final GSEA scores obtained as results of 3,000 permutations. To adjust for multiple comparisons, we performed Benjamini-Hochberg procedure. Resulted adjusted p-values were converted into significance scores as:
significance score=−log10(adj.pv)×sgn(GSEA score),
where adj. pv and GSEA score are BH adjusted p-value and final GSEA score, respectively. Heatmaps were colored based on values of significance scores. […]

Data set [6] deals with C57BL/6 mice. Put plainly: Gait speed of old C57BL/6 mice on compound diet. Format: in vivo, mouse. As to conditions: 31-month-old C57BL/6 male mice. As for the experimental part: as §1, §2
Data set [7] deals with C57BI/6 mice. Description: Lifespan of old (2-year-old) C57BL/6 mice given a diet containing the compound. Format: in vivo, mouse. As to conditions: C57BL/6 male mice, given late in life, ad libitum in diet (AZD-8055 20 mg/kg of food, LY294002 600 mg/kg, KU-0063794 10 mg/kg of diet). On the procedure: as §1
Interventions were predicted in a screen based on the gene expression longevity signatures that we developed. The predicted interventions were then verified for gene expression responses in human and mouse primary cell culture (hepatocytes) and in live mice (after mice were fed for 1 month with the diets containing these interventions). The interventions that passed these tests were further assessed for the effect on lifespan of 2-year-old C57BI/6 mice. Older mice (2-year-old) were chosen for this experiment in order to mimic the effect of giving interventions to human subjects in their second half of life.
as §2

Data set [8] concerns sex-associated genes. Description: Feminizing effect of lifespan-extending interventions on hepatic gene expression (RNAseq, UM-HET3 mice). As to conditions: females.
Excerpt: Liver samples corresponding to lifespan-extending interventions for RNA-seq and metabolome analysis were taken at 6 and 12 months of age from male and female mice treated by drugs or exposed to caloric restriction (CR) diet from 4 months of age along with control mice, which were untreated littermate mice matched by age and sex.
In all cases, interventions continued until the animals were sacrificed. […] RNA was extracted from liver tissues with PureLink RNA Mini Kit as described in the protocol and passed to sequencing.
For samples corresponding to lifespan-extending interventions, paired-end sequencing with 100 bp read length was performed on illumine HiSeq2000 platform. […] Quality filtering and adapter removal were performed using Trimmomatic version 0.32.
When performing analysis of the feminizing effect, gene expression differences were identified between control males and females from UM-HET3 strains for each age group. […] The statistical significance of correlation between sex-associated differences and response to certain intervention (“feminizing effect”) was calculated using Spearman correlation test and adjusted for multiple comparisons with Benjamini-Hochberg procedure. When calculating correlation between response to certain intervention in specific age group (6 or 12 months) and female-associated differences, the latter were calculated using gene expression data for control males and females from the other age group (12 or 6 months, respectively). […]
Differences in the feminizing effect of interventions in certain age groups between males and females was tested by Spearman correlation test, applied to the difference in log2FC of gender-associated genes in response to the specified conditions between males and females, and female-associated differences based on the other age group, with the following Benjamini-Hochberg adjustment. Manhattan distance between male and female gene expression profiles was calculated for individual samples in a pairwise manner using intersection of sex-specific gene sets across age groups. […]
[9] abbreviates: datasets from different sources, 250 genes.

Entries after “also recorded” stand apart in the source; their conditions may differ.

Take `Oc1ccc(C=Cc2cc(O)cc(O)c2)cc1` [resveratrol]: in data set [1], the “Effect on lifespan in the ITP mouse cohort” value is “did not increase lifespan”. Moreover, in data set [2] (setting [9]), the “Correlation with CR at the level of gene expression (median Spearman correlation coefficient)” value (shortened to “Correlation with CR at the level”) is “statistically significant positive correlations”. Also, the “Correlation with the main cluster of interventions (defined by CR and GH deficiency)” value in data set [2] is “week positive correlation”.
In the case of `COc1ccc(-c2ccc3c(N4CCOC[C@@H]4C)nc(N4CCOC[C@@H]4C)nc3n2)cc1CO` [AZD-8055, 5-[2,4-bis[(3S)-3-methyl-4-morpholinyl]pyrido[2,3-d]pyrimidin-7-yl]-2-methoxy-benzenemethanol], the “Effect on frailty index” value in data set [3] (old C57BL/6 mice, males and females) is reported as “no effect”. In addition, the “Effect on glucose tolerance” value in data set [4] is “does not lead to glucose intolerance; also recorded: did not compromise”.
With `Cc1nc(-c2cccnc2)sc1C(=O)Nc1ccccc1-c1cn2c(CN3CCOCC3)csc2n1` [SRT2104], the “Association with longevity signatures associated with the quantitative effect of lifespan extension” value in data set [5] (males, public dataset) was “no consistent positive association”. The “Association of hepatic gene expression changes with longevity signatures” value in data set [5] is “significant positive associations of these models in males with CR and signatures shared by lifespan-extending interventions”. The “Increase in median and maximum lifespan” value in data set [1] (male mice (Mercken et al., 2014b)) is on record as roughly 10%.
With `O=c1cc(N2CCOCC2)oc2c(-c3ccccc3)cccc12` [LY294002, 2-Morpholin-4-yl-8-phenylchromen-4-one], the “Effect on frailty index” value in data set [3] (31-month-old C57BL/6 male mice) is “improves”. Further, the “Effect on glucose tolerance” value in data set [4] is “No effect; also recorded: did not have a significant effect”. The “Effect on gait speed” value in data set [6] is “improves”. Also, the Effect on lifespan result in data set [7] was “extends lifespan”.
For `CN(C)C(=N)N=C(N)N` [metformin], in data set [1], the “Effect on lifespan in the ITP mouse cohort” value is “did not increase lifespan”. In addition, the “Correlation with CR at the level” value in data set [2] (setting [9]) is recorded as “statistically significant positive correlations”. For the same compound, in data set [2], the “Correlation with the main cluster of interventions (defined by CR and GH deficiency)” value is “week positive correlation”.
Turning to `CO[C@H]1C[C@@H]2CC[C@@H](C)[C@@](O)(O2)C(=O)C(=O)N2CCCC[C@H]2C(=O)O[C@H]([C@H](C)C[C@@H]2CC[C@@H](O)[C@H](OC)C2)CC(=O)[C@H](C)/C=C(\C)[C@@H](O)[C@@H](OC)C(=O)[C@H](C)C[C@H](C)/C=C/C=C/C=C/1C` [rapamycin], the “Feminizing effect (Spearman correlation with sex-associated gene expression differences)” value in data set [8] (6-month-old) is given as −0.14. The “Feminizing effect (Spearman correlation with sex-associated gene expression differences)” value in data set [8] (12-month-old) is on record as −0.49. Moreover, in data set [2] (setting [9]), the “Correlation of the intervention with itself across datasets (median Spearman correlation coefficient)” value worked out at 0.088 and the “Correlation with CR at the level” value is listed as −0.049.
In the case of `C[C@H]1O[C@H](O[C@H]2[C@H](O)[C@@H](O)[C@@H](O[C@H]3[C@H](O)[C@@H](O)C(O)O[C@@H]3CO)O[C@@H]2CO)[C@H](O)[C@@H](O)[C@@H]1N[C@H]1C=C(CO)[C@@H](O)[C@H](O)[C@H]1O` (stereo partly drawn) [acarbose], the “Feminizing effect (Spearman correlation with sex-associated gene expression differences)” value in data set [8] (12-month-old) is 0.19.
As to “interleukin-6: pro-inflammatory cytokine secreted by T cells and macrophages”, in data set [5], the “Association of hepatic gene expression changes with longevity signatures” value is given as “significant negative association with all longevity signatures”.

These data come from patent US20220249504A1, “LONGEVITY SIGNATURES AND THEIR APPLICATIONS” (The Brigham and Women's Hospital, Inc., priority 2019, published 2022).
